In the CheMixHub viscosity set:

Assay: xn = mol fraction of the nth substance listed

C=Cc1ccccc1 + CCCCCCCCC
viscosity [mPa·s], 101.33 kPa
Details	x1 = 0.0999	x1 = 0.2002	x1 = 0.2986	x1 = 0.3964	x1 = 0.4953	x1 = 0.5967	x1 = 0.6984	x1 = 0.7933	x1 = 0.8971
298.15 K	0.638	0.626	0.618	0.613	0.614	0.616	0.628	0.642	0.669
303.15 K	0.606	0.588	0.582	0.577	0.579	0.581	0.593	0.606	0.628
308.15 K	0.564	0.551	0.547	0.544	0.544	0.547	0.558	0.57	0.591

CC12CC3CC(C1)CC(C)(C3)C2 + CCCCCCCCC
viscosity [mPa·s], 100 kPa
Details	x1 = 0.1004	x1 = 0.2014	x1 = 0.3	x1 = 0.4003	x1 = 0.5004	x1 = 0.6001	x1 = 0.7005	x1 = 0.7994	x1 = 0.8997
293.15 K	0.802	0.912	1.033	1.203	1.39	1.647	1.986	2.44	2.984
298.15 K	0.748	0.848	0.958	1.111	1.279	1.501	1.8	2.183	2.68
303.15 K	0.699	0.791	0.891	1.028	1.182	1.377	1.635	1.992	2.419
308.15 K	0.656	0.74	0.831	0.956	1.093	1.267	1.509	1.816	2.196
313.15 K	0.617	0.694	0.777	0.891	1.018	1.18	1.399	1.661	2
318.15 K	0.582	0.652	0.728	0.833	0.947	1.09	1.282	1.527	1.829
323.15 K	0.55	0.615	0.685	0.78	0.885	1.018	1.193	1.411	1.68

C=Cc1ccccc1 + CCCCCCCCCC
viscosity [mPa·s], 101.33 kPa
Details	x1 = 0.1007	x1 = 0.2052	x1 = 0.2991	x1 = 0.4114	x1 = 0.4959	x1 = 0.6135	x1 = 0.6992	x1 = 0.8062	x1 = 0.8984
298.15 K	0.803	0.773	0.75	0.724	0.706	0.688	0.68	0.677	0.693
303.15 K	0.749	0.722	0.702	0.678	0.663	0.646	0.638	0.633	0.644
308.15 K	0.7	0.678	0.658	0.638	0.624	0.607	0.602	0.6	0.611

CC12CC3CC(C1)CC(C)(C3)C2 + CCCCCCCCCC
viscosity [mPa·s], 100 kPa
Details	x1 = 0.1028	x1 = 0.1981	x1 = 0.3019	x1 = 0.3998	x1 = 0.4996	x1 = 0.6018	x1 = 0.6968	x1 = 0.7904	x1 = 0.895
293.15 K	1.016	1.12	1.253	1.402	1.581	1.828	2.125	2.491	3.031
298.15 K	0.942	1.035	1.154	1.287	1.445	1.665	1.926	2.247	2.719
303.15 K	0.877	0.961	1.069	1.187	1.328	1.526	1.757	2.04	2.456
313.15 K	0.767	0.837	0.926	1.023	1.137	1.295	1.48	1.704	2.032
323.15 K	0.672	0.729	0.797	0.879	0.972	1.098	1.237	1.421	1.676

CC12CC3CC(C1)CC(C)(C3)C2 + CCCCCCCCCCC
viscosity [mPa·s], 100 kPa
Details	x1 = 0.1005	x1 = 0.2002	x1 = 0.2999	x1 = 0.4004	x1 = 0.4999	x1 = 0.5996	x1 = 0.7003	x1 = 0.8	x1 = 0.8999
293.15 K	1.278	1.376	1.491	1.628	1.805	2.024	2.319	2.683	3.141
298.15 K	1.173	1.273	1.385	1.492	1.639	1.831	2.087	2.418	2.813
303.15 K	1.083	1.162	1.25	1.37	1.501	1.676	1.901	2.19	2.531
308.15 K	1.003	1.071	1.153	1.259	1.376	1.53	1.735	1.98	2.299
313.15 K	0.936	0.998	1.074	1.166	1.272	1.409	1.589	1.817	2.083
318.15 K	0.872	0.939	1.006	1.084	1.172	1.297	1.461	1.665	1.911
323.15 K	0.815	0.871	0.94	1.008	1.097	1.207	1.348	1.532	1.744

CCCCCCCCO + CCCCCCCCCCCC
298.15 K, 101 kPa
Details	viscosity [mPa·s]
x2 = 0.0554	6.58
x2 = 0.0999	6
x2 = 0.1554	5.3
x2 = 0.1998	4.78
x2 = 0.2555	4.16
x2 = 0.2998	3.71
x2 = 0.3554	3.19
x2 = 0.3998	2.81
x2 = 0.4554	2.39
x2 = 0.4999	2.1
x2 = 0.5555	1.78
x2 = 0.5998	1.57
x2 = 0.6555	1.35
x2 = 0.6998	1.22
x2 = 0.7554	1.1
x2 = 0.7998	1.04
x2 = 0.8555	1
x2 = 0.8999	1
x2 = 0.9555	1.04
